# How the values were obtained:
# wild oat [1] = assay: Test Example 4: herbicidal effect by soil treatment (Table 19, symbol I); format: in vivo, wild oat (Avena fatua); conditions: amount of applied herbicide 320 g/ha
# How it was run: (§1)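 Applied as a water-diluted emulsion, the compound was sprayed onto soil covering newly sown seeds. Evaluation came three weeks after application, in a greenhouse held at 25° C. to 30° C.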
# velvetleaf [2] = assay: Test Example 4: herbicidal effect by soil treatment (Table 19, symbol M); format: in vivo, velvetleaf (Abutilon theophrasti); conditions: amount of applied herbicide 320 g/ha
# How it was run: as §1
# wild oat [3] = assay: Test Example 5: herbicidal effect by foliage application, plastic box (Table 20, symbol I); format: in vivo, wild oat (Avena fatua); conditions: foliage application, 320 g/ha, three weeks after application
# How it was run: (§2)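 Sow seeds spot-wise in sterilized diluvial soil; cover with ~1.5 cm soil. Grow 14 days in greenhouse, 25° C. to 30° C. Spray foliage with emulsion diluted to predetermined amount. Rate effect after 3 weeks.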
# southern crabgrass [4] = assay: Test Example 5: herbicidal effect by foliage application, plastic box (Table 20, symbol F); format: in vivo, southern crabgrass (Digitaria ciliaris); conditions: foliage application, 320 g/ha, three weeks after application
# How it was run: as §2
# chickweed [5] = assay: Test Example 5: herbicidal effect by foliage application, plastic box (Table 20, symbol P); format: in vivo, common chickweed (Stellaria media); conditions: foliage application, 320 g/ha, three weeks after application
# How it was run: as §2
# windgrass [6] = assay: Test Example 4: herbicidal effect by soil treatment (Table 19, symbol L); format: in vivo, windgrass (Apera spica-venti); conditions: amount of applied herbicide 320 g/ha
# How it was run: as §1
# lambsquarters [7] = assay: Test Example 5: herbicidal effect by foliage application, plastic box (Table 20, symbol O); format: in vivo, lambsquarters (Chenopodium album); conditions: foliage application, 320 g/ha, three weeks after application
# How it was run: as §2
# chickweed [8] = assay: Test Example 4: herbicidal effect by soil treatment (Table 19, symbol P); format: in vivo, common chickweed (Stellaria media); conditions: amount of applied herbicide 320 g/ha
# How it was run: as §1
# persian speedwell [9] = assay: Test Example 5: herbicidal effect by foliage application, plastic box (Table 20, symbol R); format: in vivo, Persian speedwell (Veronica persica); conditions: foliage application, 320 g/ha, three weeks after application
# How it was run: as §2
# Chinese sprangletop = assay: Test Example 3: herbicidal effect by foliage application, Wagner pot (Table 18, symbol D); format: in vivo, chinese sprangletop (Leptochloa chinensis); conditions: amount of applied herbicide 320 g/ha
# How it was run: (§3)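 Plants were sown in alluvial soil held under 0.1–0.5 cm standing water and grown 14 days in a greenhouse at 25–30 °C. An emulsifiable formulation, water-diluted to the set dose, was then sprayed onto the foliage, and effects were scored three weeks later using previously defined criteria.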
# rice flat sedge = assay: Test Example 3: herbicidal effect by foliage application, Wagner pot (Table 18, symbol E); format: in vivo, rice flat sedge (Cyperus iria); conditions: amount of applied herbicide 320 g/ha
# How it was run: as §3
# blackgrass = assay: Test Example 5: herbicidal effect by foliage application, plastic box (Table 20, symbol J); format: in vivo, blackgrass (Alopecurus myosuroides); conditions: foliage application, 320 g/ha, three weeks after application
# How it was run: as §2
# redroot pigweed [10] = assay: Test Example 4: herbicidal effect by soil treatment (Table 19, symbol N); format: in vivo, redroot pigweed (Amaranthus retroflexus); conditions: amount of applied herbicide 320 g/ha
# How it was run: as §1
# barnyard grass [11] = assay: Test Example 3: herbicidal effect by foliage application, Wagner pot (Table 18, symbol H); format: in vivo, barnyard grass (Echinochloa crus-galli); conditions: amount of applied herbicide 320 g/ha
# How it was run: as §3
# lambsquarters [12] = assay: Test Example 4: herbicidal effect by soil treatment (Table 19, symbol O); format: in vivo, lambsquarters (Chenopodium album); conditions: amount of applied herbicide 320 g/ha
# How it was run: as §1
# Japanese bulrush = assay: Test Example 1: herbicidal activity, application before weed generation under submerged conditions (Table 16, symbol B); format: in vivo, Japanese bulrush (Schoenoplectus juncoides); conditions: amount of applied herbicide 320 g/ha
# How it was run: (§4)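 Alluvial soil was flooded to 4 cm depth, weed seeds were sown mixed and 2.5-leaf rice seedlings were transplanted. On sowing day, the compound's emulsion, diluted in water to a set dose, was applied to the water surface. Plants grew at 25–30 °C and were scored 0–5 after three weeks.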
# barnyard grass [13] = assay: Test Example 5: herbicidal effect by foliage application, plastic box (Table 20, symbol H); format: in vivo, barnyard grass (Echinochloa crus-galli); conditions: foliage application, 320 g/ha, three weeks after application
# How it was run: as §2
# green foxtail [14] = assay: Test Example 4: herbicidal effect by soil treatment (Table 19, symbol G); format: in vivo, green foxtail (Setaria viridis); conditions: amount of applied herbicide 320 g/ha
# How it was run: as §1
# barnyard grass [15] = assay: Test Example 4: herbicidal effect by soil treatment (Table 19, symbol H); format: in vivo, barnyard grass (Echinochloa crus-galli); conditions: amount of applied herbicide 320 g/ha
# How it was run: as §1
# Italian ryegrass [16] = assay: Test Example 4: herbicidal effect by soil treatment (Table 19, symbol K); format: in vivo, Italian ryegrass (Lolium multiflorum); conditions: amount of applied herbicide 320 g/ha
# How it was run: as §1
# velvetleaf [17] = assay: Test Example 5: herbicidal effect by foliage application, plastic box (Table 20, symbol M); format: in vivo, velvetleaf (Abutilon theophrasti); conditions: foliage application, 320 g/ha, three weeks after application
# How it was run: as §2
# southern crabgrass [18] = assay: Test Example 4: herbicidal effect by soil treatment (Table 19, symbol F); format: in vivo, southern crabgrass (Digitaria ciliaris); conditions: amount of applied herbicide 320 g/ha
# How it was run: as §1
# oval-leafed pondweed = assay: Test Example 1: herbicidal activity, application before weed generation under submerged conditions (Table 16, symbol C); format: in vivo, oval-leafed pondweed (Monochoria vaginalis); conditions: amount of applied herbicide 320 g/ha
# How it was run: as §4
# redroot pigweed [19] = assay: Test Example 5: herbicidal effect by foliage application, plastic box (Table 20, symbol N); format: in vivo, redroot pigweed (Amaranthus retroflexus); conditions: foliage application, 320 g/ha, three weeks after application
# How it was run: as §2
# windgrass [20] = assay: Test Example 5: herbicidal effect by foliage application, plastic box (Table 20, symbol L); format: in vivo, windgrass (Apera spica-venti); conditions: foliage application, 320 g/ha, three weeks after application
# How it was run: as §2
# persian speedwell [21] = assay: Test Example 4: herbicidal effect by soil treatment (Table 19, symbol R); format: in vivo, Persian speedwell (Veronica persica); conditions: amount of applied herbicide 320 g/ha
# How it was run: as §1
# late watergrass = assay: Test Example 1: herbicidal activity, application before weed generation under submerged conditions (Table 16, symbol A); format: in vivo, late watergrass (Echinochloa oryzicola); conditions: amount of applied herbicide 320 g/ha
# How it was run: as §4
# green foxtail [22] = assay: Test Example 5: herbicidal effect by foliage application, plastic box (Table 20, symbol G); format: in vivo, green foxtail (Setaria viridis); conditions: foliage application, 320 g/ha, three weeks after application
# How it was run: as §2
# Italian ryegrass [23] = assay: Test Example 5: herbicidal effect by foliage application, plastic box (Table 20, symbol K); format: in vivo, Italian ryegrass (Lolium multiflorum); conditions: foliage application, 320 g/ha, three weeks after application
# How it was run: as §2
structure (smiles),measurement,setting,value
Cc1nn(C)c(=O)c(-c2c(-c3ccc(N(C)C)cc3)sc3ccc(F)cc23)c1O [2-425],"herbicidal effect, I: wild oat",wild oat [1],0 (Herbicidal rate of 5% or less (almost no effect))
same,"herbicidal effect, M: velvetleaf",velvetleaf [2],0 (Herbicidal rate of 5% or less (almost no effect))
same,"I: wild oat, herbicidal effect grade",wild oat [3],4 (Herbicidal rate of 70% or more and less than 90%)
same,"F: southern crabgrass, herbicidal effect grade",southern crabgrass [4],5 (Herbicidal rate of 90% or more (almost completely withered))
same,"P: chickweed, herbicidal effect grade",chickweed [5],5 (Herbicidal rate of 90% or more (almost completely withered))
same,"herbicidal effect, L: windgrass",windgrass [6],0 (Herbicidal rate of 5% or less (almost no effect))
same,"O: lambsquarters, herbicidal effect grade",lambsquarters [7],5 (Herbicidal rate of 90% or more (almost completely withered))
same,"herbicidal effect, P: chickweed",chickweed [8],3 (Herbicidal rate of 40% or more and less than 70%)
same,"R: persian speedwell, herbicidal effect grade",persian speedwell [9],5 (Herbicidal rate of 90% or more (almost completely withered))
same,herbicidal effect on D: Chinese sprangletop,Chinese sprangletop,2 (Herbicidal rate of 20% or more and less than 40%)
same,herbicidal effect on E: rice flat sedge,rice flat sedge,5 (Herbicidal rate of 90% or more (almost completely withered))
same,"J: blackgrass, herbicidal effect grade",blackgrass,4 (Herbicidal rate of 70% or more and less than 90%)
same,"herbicidal effect, N: redroot pigweed",redroot pigweed [10],5 (Herbicidal rate of 90% or more (almost completely withered))
same,herbicidal effect on H: barnyard grass,barnyard grass [11],4 (Herbicidal rate of 70% or more and less than 90%)
same,"herbicidal effect, O: lambsquarters",lambsquarters [12],4 (Herbicidal rate of 70% or more and less than 90%)
same,"Herbicidal effect, B: Japanese bulrush",Japanese bulrush,3 (Herbicidal rate of 40% or more and less than 70%)
same,"H: barnyard grass, herbicidal effect grade",barnyard grass [13],4 (Herbicidal rate of 70% or more and less than 90%)
same,"herbicidal effect, G: green foxtail",green foxtail [14],0 (Herbicidal rate of 5% or less (almost no effect))
same,"herbicidal effect, H: barnyard grass",barnyard grass [15],0 (Herbicidal rate of 5% or less (almost no effect))
same,"herbicidal effect, K: Italian ryegrass",Italian ryegrass [16],2 (Herbicidal rate of 20% or more and less than 40%)
same,"M: velvetleaf, herbicidal effect grade",velvetleaf [17],5 (Herbicidal rate of 90% or more (almost completely withered))
same,"herbicidal effect, F: southern crabgrass",southern crabgrass [18],0 (Herbicidal rate of 5% or less (almost no effect))
same,"Herbicidal effect, C: oval-leafed pondweed",oval-leafed pondweed,0 (Herbicidal rate of 5% or less (almost no effect))
same,"N: redroot pigweed, herbicidal effect grade",redroot pigweed [19],5 (Herbicidal rate of 90% or more (almost completely withered))
same,"L: windgrass, herbicidal effect grade",windgrass [20],5 (Herbicidal rate of 90% or more (almost completely withered))
same,"herbicidal effect, R: persian speedwell",persian speedwell [21],5 (Herbicidal rate of 90% or more (almost completely withered))
same,"Herbicidal effect, A: late watergrass",late watergrass,3 (Herbicidal rate of 40% or more and less than 70%)
same,"G: green foxtail, herbicidal effect grade",green foxtail [22],5 (Herbicidal rate of 90% or more (almost completely withered))
same,"K: Italian ryegrass, herbicidal effect grade",Italian ryegrass [23],4 (Herbicidal rate of 70% or more and less than 90%)

# Source: US20230085307A1, “PYRIDAZINONE COMPOUND AND HERBICIDE” (NISSAN CHEMICAL CORPORATION, priority 2019, published 2023)
